# Test results from US8722849B2, “Polypeptides” (Novo Nordisk A/S, priority 2011, dated 2014).
# Like-named read-outs stand apart in the source and are kept apart here. Starred links: 1 amine or outer side, 2 acyl side, 3 side chain; linkers in the order of their positions; H or OH if unused. Positions of bridges follow the written chain, without caps; N, C: chain ends. Residues, ends and D or L forms follow the SMILES beside them. *: point of attachment. C20 diacid = O=C(O)CCCCCCCCCCCCCCCCCCC(=O)*; γGlu = O=C(O)[C@H](CCC(=O)[*:2])N[*:1]
# Key:
# [1] = molecular target: T1, human amylin receptor (amylin 3(a) receptor: human calcitonin receptor + RAMP-3) (Homo sapiens, UniProt O60896+P30988); test: Assay (II)a functional CRE-luciferase assay, human amylin receptor; assay type: cell-based; conditions: Table 2; BHK amylin 3(a)-receptor/CRE-luc cells
# T1 construct: expressed in transfected cells; host or cells: BHK570
# T1 sequence (P30988 25-474): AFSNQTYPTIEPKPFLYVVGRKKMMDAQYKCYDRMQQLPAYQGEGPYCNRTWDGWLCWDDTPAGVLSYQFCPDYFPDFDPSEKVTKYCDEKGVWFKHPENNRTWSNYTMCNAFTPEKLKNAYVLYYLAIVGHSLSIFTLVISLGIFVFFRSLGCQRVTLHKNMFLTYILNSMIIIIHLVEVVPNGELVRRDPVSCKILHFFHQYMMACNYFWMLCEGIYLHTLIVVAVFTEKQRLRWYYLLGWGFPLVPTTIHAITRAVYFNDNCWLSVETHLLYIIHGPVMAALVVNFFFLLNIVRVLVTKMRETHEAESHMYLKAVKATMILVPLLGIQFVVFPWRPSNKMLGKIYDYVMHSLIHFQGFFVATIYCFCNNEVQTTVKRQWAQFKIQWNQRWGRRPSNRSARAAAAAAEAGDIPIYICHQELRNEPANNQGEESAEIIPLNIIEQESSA
# T1 sequence (O60896 24-148 partner): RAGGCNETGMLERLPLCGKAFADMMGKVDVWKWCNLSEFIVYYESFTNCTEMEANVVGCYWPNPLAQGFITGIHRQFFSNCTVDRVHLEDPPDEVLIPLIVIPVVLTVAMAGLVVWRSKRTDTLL
# [2] = Assay (III) ThT fibrillation assay for physical stability; assay type: physicochemical
# In short: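 Freshly prepared formulations, pH-adjusted, with 1 μM ThT; four or eight replicates incubated at 37 °C under 960 rpm orbital shaking. Fluorescence (ex 444/em 485 nm) read every 20 min; […]. Peptide concentration measured by RP-HPLC before and after the run.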
# [3] = Assay (IV) determination of solubility; assay type: physicochemical
# In short: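 Stock ~500 nmol/ml in water; 1:1 with 100 mM buffer, pH 3.0–8.0 (glycylglycine ≤5.0, bistrispropane ≥6.0); 18 h RT; spin; HPLC quantitation of soluble polypeptide.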
# [4] = molecular target: T2, human calcitonin receptor (Homo sapiens, UniProt P30988); test: Assay (II)a functional CRE-luciferase assay, human calcitonin receptor; assay type: cell-based
# T2 construct: expressed in transfected cells; host or cells: BHK570
# T2 sequence (P30988 25-474): T1 sequence (P30988 25-474)
# [5] = bistrispropane buffer, pH 6, pH 6.0, read-out: Solubility pH 6.0
# [6] = bistrispropane buffer, pH 6.5, pH 6.5, read-out: Solubility pH 6.5
# [7] = bistrispropane buffer, pH 7, pH 7.0, read-out: Solubility pH 7.0
# [8] = bistrispropane buffer, pH 7.5, pH 7.5, read-out: Solubility pH 7.5
# [9] = bistrispropane buffer, pH 8, pH 8.0, read-out: Solubility pH 8.0
# [10] = glycylglycine buffer, pH 3, pH 3.0, read-out: Solubility pH 3.0
# [11] = glycylglycine buffer, pH 4, pH 4.0, 18 hours at room temperature, Table 2, read-out: Solubility pH 4.0
# [12] = glycylglycine buffer, pH 4, pH 4.0, read-out: Solubility pH 4.0
# [13] = glycylglycine buffer, pH 5, pH 5.0, read-out: Solubility pH 5.0
# [14] = Table 7, human calcitonin (CTa) receptor
# [15] = bistrispropane buffer, pH 7, pH 7.0, 18 hours at room temperature, Table 3, read-out: Solubility pH 7.0
EC50 [1],ThT pH 4.0 lag time ([2]; ThT fibrillation assay),ThT pH 4.0 lag time (h) ([2]; ThT fibrillation assay),"solubility at 18 h [3, 5]","solubility at 18 h [3, 6]","solubility at 18 h [3, 7]","solubility at 18 h [3, 8]","solubility at 18 h [3, 9]","solubility at 18 h [3, 10]","solubility at 18 h [3, 11]","solubility at 18 h [3, 12]","solubility at 18 h [3, 13]","EC50 [4, 14]",ThT pH 4.0 lag time ([2]; Table 8),ThT pH 4.0 lag time ([2]; Table 9),"solubility at 18 h [3, 15]","solubility at 18 h ([3]; bistrispropane buffer, pH 7, pH 7.0, Table 8, read-out: Solubility pH 7.0)","solubility at 18 h ([3]; bistrispropane buffer, pH 7, pH 7.0, Table 9, read-out: Solubility pH 7.0)","solubility at 18 h ([3]; bistrispropane buffer, pH 7.5, pH 7.5, Table 9, read-out: Solubility pH 7.5)","EC50 ([4]; Table 11, read-out: CTa receptor human EC50)",SMILES
82 pM,>45 h,>45 h,> 200 µM,16 µM,2 µM,11 µM,51 µM,> 200 µM,> 200 µM,> 200 µM,> 200 µM,175 pM,,,,,,,,"CC[C@H](C)[C@H](NC(=O)[C@@H]1CCCN1C(=O)CNC(=O)[C@H](Cc1ccccc1)NC(=O)[C@H](CC(N)=O)NC(=O)[C@H](CC(N)=O)NC(=O)[C@H](CO)NC(=O)[C@H](CO)NC(=O)[C@H](Cc1c[nH]cn1)NC(=O)[C@H](Cc1c[nH]cn1)NC(=O)[C@H](CC(C)C)NC(=O)[C@H](Cc1ccccc1)NC(=O)[C@H](CCC(=O)O)NC(=O)[C@H](C)NC(=O)[C@H](CC(C)C)NC(=O)[C@H](CCCNC(=N)N)NC(=O)[C@H](CCC(N)=O)NC(=O)[C@@H](NC(=O)[C@H](C)NC(=O)[C@@H]1CSSC[C@H](NC(=O)[C@H](CCCNC(=N)N)NC(=O)CC[C@H](NC(=O)CCCCCCCCCCCCCCCCCCC(=O)O)C(=O)O)C(=O)N[C@@H](CC(N)=O)C(=O)N[C@@H]([C@@H](C)O)C(=O)N[C@@H](C)C(=O)N[C@@H]([C@@H](C)O)C(=O)N1)[C@@H](C)O)C(=O)N[C@@H](CC(C)C)C(=O)N1CCC[C@H]1C(=O)N1CCC[C@H]1C(=O)N[C@H](C(=O)N[C@@H](CC(N)=O)C(=O)N[C@H](C(=O)NCC(=O)N[C@@H](CO)C(=O)N[C@@H](Cc1c[nH]cn1)C(=O)N[C@H](C(=O)N[C@@H](Cc1ccc(O)cc1)C(N)=O)[C@@H](C)O)C(C)C)[C@@H](C)O [Example 95, N-alpha-[(S)-4-Carboxy-4-(19-carboxynonadecanoylamino)butyryl]-[Arg1,Glu14,His17,His35]-pramlintide] ({C20 diacid-γGlu}-RCNTATCATQRLAEFLHHSSNNFGPILPPTNVGSHTY-NH2; disulfide 2-7 (inferred))"
1710 pM,>45 h,>45 h,> 200 µM,> 200 µM,> 200 µM,> 200 µM,> 200 µM,> 200 µM,> 200 µM,> 200 µM,> 200 µM,,>45 h,>45 h,> 200 µM,> 200 µM,> 200 µM,> 200 µM,3570 pM,"CC[C@H](C)[C@H](NC(=O)[C@@H]1CCCN1C(=O)CNC(=O)[C@H](Cc1ccccc1)NC(=O)[C@H](CCC(N)=O)NC(=O)[C@H](CCC(N)=O)NC(=O)[C@H](CO)NC(=O)[C@H](CO)NC(=O)[C@H](Cc1c[nH]cn1)NC(=O)[C@H](CCCNC(=N)N)NC(=O)[C@H](CC(C)C)NC(=O)[C@H](Cc1ccccc1)NC(=O)[C@H](CCC(=O)O)NC(=O)[C@H](C)NC(=O)[C@H](CC(C)C)NC(=O)[C@H](CCCNC(=N)N)NC(=O)[C@H](CCC(N)=O)NC(=O)[C@@H](NC(=O)[C@H](C)NC(=O)[C@@H]1CSSC[C@H](NC(=O)[C@H](CCC(=O)O)NC(=O)[C@H](CCCNC(=N)N)NC(=O)[C@H](CCC(=O)O)NC(=O)CC[C@H](NC(=O)CCCCCCCCCCCCCCCCCCC(=O)O)C(=O)O)C(=O)N[C@@H](CC(N)=O)C(=O)N[C@@H]([C@@H](C)O)C(=O)N[C@@H](C)C(=O)N[C@@H]([C@@H](C)O)C(=O)N1)[C@@H](C)O)C(=O)N[C@@H](CC(C)C)C(=O)N1CCC[C@H]1C(=O)N1CCC[C@H]1C(=O)N[C@H](C(=O)N[C@@H](CCC(N)=O)C(=O)N[C@H](C(=O)NCC(=O)N[C@@H](CO)C(=O)N[C@@H](CCC(N)=O)C(=O)N[C@H](C(=O)N1CCC[C@H]1C(N)=O)[C@@H](C)O)C(C)C)[C@@H](C)O [Example 164, N-alpha-[(S)-4-Carboxy-4-(19-carboxynonadecanoylamino)butyryl]-Glu-Arg-[Glu1,Glu14,Arg17,Gln21,Gln22,Gln31,Gln35,Pro37]-pramlintide] ({C20 diacid-γGlu}-ERECNTATCATQRLAEFLRHSSQQFGPILPPTQVGSQTP-NH2; disulfide 4-9 (inferred))"
487 pM,>45 h,>45 h,> 200 µM,120 µM,44 µM,79 µM,173 µM,> 200 µM,> 200 µM,> 200 µM,> 200 µM,124 pM,,,,,,,,"CC[C@H](C)[C@H](NC(=O)[C@@H]1CCCN1C(=O)CNC(=O)[C@H](Cc1ccccc1)NC(=O)[C@H](CC(N)=O)NC(=O)[C@H](CC(N)=O)NC(=O)[C@H](CO)NC(=O)[C@H](CO)NC(=O)[C@H](Cc1c[nH]cn1)NC(=O)[C@H](Cc1c[nH]cn1)NC(=O)[C@H](CC(C)C)NC(=O)[C@H](Cc1ccccc1)NC(=O)[C@H](CCC(=O)O)NC(=O)[C@H](C)NC(=O)[C@H](CC(C)C)NC(=O)[C@H](CCCNC(=N)N)NC(=O)[C@H](CCC(N)=O)NC(=O)[C@@H](NC(=O)[C@H](C)NC(=O)[C@@H]1CSSC[C@H](NC(=O)[C@H](CCCCN)NC(=O)CC[C@H](NC(=O)CCCCCCCCCCCCCCCCCCC(=O)O)C(=O)O)C(=O)N[C@@H](CC(N)=O)C(=O)N[C@@H]([C@@H](C)O)C(=O)N[C@@H](C)C(=O)N[C@@H]([C@@H](C)O)C(=O)N1)[C@@H](C)O)C(=O)N[C@@H](CC(C)C)C(=O)N1CCC[C@H]1C(=O)N1CCC[C@H]1C(=O)N[C@H](C(=O)N[C@@H](CC(N)=O)C(=O)N[C@@H](Cc1c[nH]cn1)C(=O)NCC(=O)N[C@@H](CO)C(=O)N[C@@H](CC(N)=O)C(=O)N[C@H](C(=O)N[C@@H](Cc1ccc(O)cc1)C(N)=O)[C@@H](C)O)[C@@H](C)O [Example 116, N-alpha-[(S)-4-Carboxy-4-(19-carboxynonadecanoylamino)butyryl]-[Glu14,His17,His32]-pramlintide] ({C20 diacid-γGlu}-KCNTATCATQRLAEFLHHSSNNFGPILPPTNHGSNTY-NH2; disulfide 2-7 (inferred); C-terminus assumed)"
79.5 pM,,23 h,> 200 µM,> 200 µM,> 200 µM,> 200 µM,> 200 µM,> 200 µM,> 200 µM,> 200 µM,> 200 µM,107 pM,,,> 200 µM,,,,,"CC[C@H](C)[C@H](NC(=O)[C@@H]1CCCN1C(=O)CNC(=O)[C@H](Cc1ccccc1)NC(=O)[C@H](CC(N)=O)NC(=O)[C@H](CC(N)=O)NC(=O)[C@H](CO)NC(=O)[C@H](CO)NC(=O)[C@H](Cc1c[nH]cn1)NC(=O)[C@H](Cc1c[nH]cn1)NC(=O)[C@H](CC(C)C)NC(=O)[C@H](Cc1ccccc1)NC(=O)[C@H](CCC(=O)O)NC(=O)[C@H](C)NC(=O)[C@H](CC(C)C)NC(=O)[C@H](CCCNC(=N)N)NC(=O)[C@H](CCC(N)=O)NC(=O)[C@@H](NC(=O)[C@H](C)NC(=O)[C@@H]1CSSC[C@H](NC(=O)CC[C@H](NC(=O)CCCCCCCCCCCCCCCCCCC(=O)O)C(=O)O)C(=O)N[C@@H](CC(N)=O)C(=O)N[C@@H]([C@@H](C)O)C(=O)N[C@@H](C)C(=O)N[C@@H]([C@@H](C)O)C(=O)N1)[C@@H](C)O)C(=O)N[C@@H](CC(C)C)C(=O)N1CCC[C@H]1C(=O)N1CCC[C@H]1C(=O)N[C@H](C(=O)N[C@@H](CC(N)=O)C(=O)N[C@H](C(=O)NCC(=O)N[C@@H](CO)C(=O)N[C@@H](CC(N)=O)C(=O)N[C@H](C(=O)N1CCC[C@H]1C(N)=O)[C@@H](C)O)C(C)C)[C@@H](C)O [Example 104, N-alpha-[(S)-4-Carboxy-4-(19-carboxynonadecanoylamino)butyryl]-[des1,Glu14,His17,Pro37]-pramlintide] ({C20 diacid-γGlu}-CNTATCATQRLAEFLHHSSNNFGPILPPTNVGSNTP-NH2; disulfide 1-6 (inferred))"
